For one experiment, the system named is Jurkat cells. The experiment is described as follows: DNA fragmentation analysis in Jurkat cells. It counts as cell-based, human. The following applies: 50 μM compound or 1 μM staurosporin, 8 hr.
For experiment [1], the system named is caspase-3 (DEVDase activity). The experiment is described as follows: DEVDase fluorescence screen in HeLa cell S-100 cytoplasmic extracts. The conditions noted are these: in vitro fluorescence assay, HeLa S-100 extracts with cyto c. It counts as biochemical. The source says:
In order to identify compounds that modulate apoptosis, a chemical genetics approach was utilized to screen for molecules that target components of the apoptosis pathway (see, T. U. Mayer et al., Science 286, 971-4 (1999)). An in vitro screen using cytoplasmic extracts was adapted for apoptosis to a 96-well format and used to test an in-house library of ˜3500 compounds (see, T. Fernandes-Alnemri et al, Proc Natl Acad Sci USA 93, 7464-9 (1996); X. Liu, C. N. Kim, J. Yang, R. Jemmerson, X. Wang, Cell 86, 147-57 (1996); L. M. Leoni et al., Proc Natl Acad Sci USA 95, 9567-71 (1998)). Briefly, individual compounds were added to HeLa cell S-100 cytoplasmic extracts at a final concentration of 1 mM and apoptosis was induced by adding bovine heart cyto c (HeLa cell cytoplasmic extracts were prepared according to previously published reports (see, P. Li et al., Cell 91, 479-89 (1997)). Compounds were distributed into 96-well microtiter plates at a final concentration of 1 mM. To each well was added 250 μg of total protein from cytoplasmic extracts in HEB buffer (50 mM Hepes pH 7.4, 50 mM KCl, 5 mM EGTA, 2 mM MgCl), with 2 mM DTT, 2 μM cyto c, and 0.5 μM DEVD-AFC substrate in a total of 150 μL. Plates were incubated at 37° C. and fluorescence was read in a LJL Biosystems plate reader at 10 min intervals). Activation of caspase-3 was monitored by cleavage of a fluorogenic substrate, Asp-Glu-Val-Asp-7-amino-4-trifluoromethylcoumarin (DEVDase activity). As designed, the DEVDase fluorescence screen encompasses the release of cyto c from the mitochondria to the activation of caspase-3. Possible targets include cyto c, Apaf-1, caspase-9, caspase-3, inhibitors of apoptosis (IAPs), and possible unidentified components present in the cytosol.

Consider `O=C1C(=O)N(Cc2ccc(Cl)c(Cl)c2)c2ccccc21` [Compound 2], for which, in the experiment on Jurkat cells, the DNA fragmentation entry is listed as “induced DNA fragmentation”. The “activation of DEVDase activity” value in experiment [1] was “strongly activated DEVDase activity”.

Take `O=C(NCc1ccc(Cl)c(Cl)c1)OC1CCc2ccccc21` (stereo not drawn) [Compound 4]: in the experiment with Jurkat cells, the DNA fragmentation entry is reported as “less pronounced effect”. The “activation of DEVDase activity” value in experiment [1] is “no activity”.

Take `O=C(NCc1ccc(Cl)c(Cl)c1)OC1CCc2ccccc21` (stereo not drawn) [Compound 5]: the DNA fragmentation result with Jurkat cells was “induced DNA fragmentation”. The “activation of DEVDase activity” value in experiment [1] is listed as “strongly activated DEVDase activity”.

For the origin of these results see patent publication US20030229132A1, “Small molecule modulators of apoptosis” (priority 2002, published 2003).
